Laboratory results from US11613531B2, “Inhibitors of RHO associated coiled-coil containing protein kinase” (Kadmon Corporation, LLC, priority 2017, dated 2023).

tested on: ppMlc (T18/S19) levels in A7R5 cells; experiment: A7R5 in-cell ELISA (pMLC); assay type: cell-based, Rat; settings: A7R5 cells, 1 μM compound
Method: Determination of Compounds ROCK Inhibitory Activity in A7R5Cells.
Rat aortic smooth muscle cell line, A7R5, cells were seeded with density of 5,000 cells/well in a 96-well plates for 24 hours and subsequently treated for 90 min with testing compounds. Cells were then fixed and processed according to the In-Cell ELISA Colorimetric Detection Kit manual (Thermo Scientific).
An A7R5 in-cell Elisa assay was performed. A7R5 cells were treated with 9 points 2 fold serial dilution of compounds and ppMlc (T18/S19) levels were determined to calculate cellular IC50 values of the compounds. Compounds of the invention gave in cell IC50s under 100 nM.
In vitro activities for the compounds were measured with Z′-lyte kinase kit (ThermoFisher Scientific). The percent inhibition rate was calculated by normalizing the kinase activity value obtained with 1 μM compound treatment against DMSO control value and then applied to the formula, [1-(compound/DMSO)]×100%. IC50s were calculated using the nonlinear regression curve fit function of the GraphPad Prism software with kinase activities data measured with 9 points 2-fold serial dilution of compounds treatment. In cell pMLC IC50s were calculated with data obtained from A7R5 cell experiments. A7R5 cells were treated with 9 points 2-fold serial dilution of compounds and ppMlc (T18/S19) levels were determined to calculate cellular IC50 values of the compounds using the nonlinear regression curve fit function of the GraphPad Prism software. NIH3T3 cells stably expressing ACTA2-promoter-driven-luciferase were applied to measure ROCK compounds functional IC50s in cells. Cells were plated in 96 well plates to confluence and treated with 9 points serial dilution of compounds in combination with TGFβ1 for 24 hr. Luciferase activities were measured and compound's IC50s were calculated using the nonlinear regression curve fit function of the GraphPad Prism software.

c1cc(Nc2ccc3[nH]ncc3c2)nc(N2CCCC(C3CCCNC3)C2)n1 (stereo not drawn) [Example 86, N-(2-([3,3′-bipiperidin]-1-yl)pyrimidin-4-yl)-1H-indazol-5-amine] was tested, and the “pMLC % inh A7R5 @ [conc]” value was 377.49%.

same assay, conditions: Rattus norvegicus, A7R5, A7R5 cells, 1 μM compound; read-out: pMLC % inh A7R5 @ [conc]

First: Fc1cnc(N2CC3(CCNC3)C2)nc1Nc1ccc2[nH]ncc2c1 [Example 163, N-(5-fluoro-2-(2,6-diazaspiro[3.4]octan-2-yl)pyrimidin-4-yl)-1H-indazol-5-amine]
Second: Fc1cnc(N2CC3(CNC3)C2)nc1Nc1ccc2[nH]ncc2c1 [Example 165, N-(5-fluoro-2-(2,6-diazaspiro[3.3]heptan-2-yl)pyrimidin-4-yl)-1H-indazol-5-amine]
The inhibition at 1 µM of the first is higher: -7.8% for the first, -10.2% for the second.

Going from c1cc(Nc2ccc3[nH]ncc3c2)nc(N2CCCC3(CCNC3)C2)n1 (stereo not drawn) [Example 74, N-(2-(2,7-diazaspiro[4.5]decan-7-yl)pyrimidin-4-yl)-1H-indazol-5-amine] to c1cc(Nc2ccc3[nH]ncc3c2)nc(N2CCC3(CCCNC3)C2)n1 (stereo not drawn) [Example 73, N-(2-(2,7-diazaspiro[4.5]decan-2-yl)pyrimidin-4-yl)-1H-indazol-5-amine], the inhibition at 1 µM falls from 2.7% to -4.8%.

First: Cc1cc(Nc2ccc3[nH]ncc3c2)nc(N2CC3(CCNCC3)C2)n1 [Example 127, N-(6-methyl-2-(2,7-diazaspiro[3.5]nonan-2-yl)pyrimidin-4-yl)-1H-indazol-5-amine]
Second: Cc1cc(Nc2ccc3[nH]ncc3c2)nc(N2CC3(CCNC3)C2)n1 [Example 126, N-(6-methyl-2-(2,6-diazaspiro[3.4]octan-2-yl)pyrimidin-4-yl)-1H-indazol-5-amine]
The inhibition at 1 µM of the first is higher: -7.2% for the first, -12.3% for the second.

Compared with c1cc(Nc2ccc3[nH]ncc3c2)nc(N2C[C@@H]3CN[C@@H]3C2)n1 [Example 81, N-(2-((1S,5S)-3,6-diazabicyclo[3.2.0]heptan-3-yl)pyrimidin-4-yl)-1H-indazol-5-amine], c1cc(Nc2ccc3[nH]ncc3c2)nc(N2CCC(C3CNC3)C2)n1 (stereo not drawn) [Example 83, N-(2-(3-(azetidin-3-yl)pyrrolidin-1-yl)pyrimidin-4-yl)-1H-indazol-5-amine] is lower in inhibition at 1 µM: 13.2% for the first, 2.1% for the second.

Going from c1cc(Nc2ccc3[nH]ncc3c2)nc(N2CCC3NCCC3C2)n1 (stereo not drawn) [Example 80, N-(2-(octahydro-5H-pyrrolo[3,2-c]pyridin-5-yl)pyrimidin-4-yl)-1H-indazol-5-amine] to c1cc(Nc2ccc3[nH]ncc3c2)nc(N2CC3CNCC(C3)C2)n1 [Example 79, N-(2-(3,7-diazabicyclo[3.3.1]nonan-3-yl)pyrimidin-4-yl)-1H-indazol-5-amine], the inhibition at 1 µM falls from 11.9% to 9.8%.

Compared with c1cc(Nc2ccc3[nH]ncc3c2)nc(N2CCC3(CC2)CNCCO3)n1 [Example 72, N-(2-(1-oxa-4,9-diazaspiro[5.5]undecan-9-yl)pyrimidin-4-yl)-1H-indazol-5-amine], Fc1cnc(N2CCC3(CC2)CNCCO3)nc1Nc1ccc2[nH]ncc2c1 [Example 160, N-(5-fluoro-2-(1-oxa-4,9-diazaspiro[5.5]undecan-9-yl)pyrimidin-4-yl)-1H-indazol-5-amine] is higher in inhibition at 1 µM: -6.7% for the first, 5.9% for the second.

Going from Cc1cc(Nc2ccc3[nH]ncc3c2)nc(N2CC(C3CCCNC3)c3ccccc32)n1 (stereo not drawn) [Example 139, N-(6-methyl-2-(3-(piperidin-3-yl)indolin-1-yl)pyrimidin-4-yl)-1H-indazol-5-amine] to Cc1cc(Nc2ccc3[nH]ncc3c2)nc(N2CCCC(C3CCCNC3)C2)n1 (stereo not drawn) [Example 136, N-(2-([3,3′-bipiperidin]-1-yl)-6-methylpyrimidin-4-yl)-1H-indazol-5-amine], the inhibition at 1 µM falls from 2.2% to 1.1%.

First: Cc1cc(Nc2ccc3[nH]ncc3c2)nc(N2CCC3(CCCNC3)C2)n1 (stereo not drawn) [Example 124, N-(6-methyl-2-(2,7-diazaspiro[4.5]decan-2-yl)pyrimidin-4-yl)-1H-indazol-5-amine]
Second: Cc1cc(Nc2ccc3[nH]ncc3c2)nc(N2CCC3(CNC3)C2)n1 [Example 122, N-(6-methyl-2-(2,6-diazaspiro[3.4]octan-6-yl)pyrimidin-4-yl)-1H-indazol-5-amine]
The inhibition at 1 µM of the first is lower: -7.6% for the first, -6.8% for the second.

First: O=C1CN(c2nccc(Nc3ccc4[nH]ncc4c3)n2)CCN1 [Example 17, 4-(4-((1H-indazol-5-yl)amino)pyrimidin-2-yl)piperazin-2-one]
Second: c1cc(Nc2ccc3[nH]ncc3c2)nc(N2CC3(CNC3)C2)n1 [Example 77, N-(2-(2,6-diazaspiro[3.3]heptan-2-yl)pyrimidin-4-yl)-1H-indazol-5-amine]
The inhibition at 1 µM of the first is higher: 11.2% for the first, -2.9% for the second.

Compound Fc1cnc(N2CCC3(CNC3)C2)nc1Nc1ccc2[nH]ncc2c1 [Example 159, N-(5-fluoro-2-(2,6-diazaspiro[3.4]octan-6-yl)pyrimidin-4-yl)-1H-indazol-5-amine] has an inhibition at 1 µM of -12.2%.

same assay, conditions: Rattus norvegicus, A7R5, A7R5 cells, 10 μM compound; read-out: pMLC % inh A7R5 @ [conc]

Going from Cc1cnc(N2CCCNCC2)nc1Nc1ccc2[nH]ncc2c1 [Example 3, N-(2-(1,4-diazepan-1-yl)-5-methylpyrimidin-4-yl)-1H-indazol-5-amine] to Cc1cnc(N2CCNC(C(C)C)CC2)nc1Nc1ccc2[nH]ncc2c1 (stereo not drawn) [Example 93, N-(2-(5-isopropyl-1,4-diazepan-1-yl)-5-methylpyrimidin-4-yl)-1H-indazol-5-amine], the inhibition at 10 µM falls from 54.4% to 21.1%.

First: c1ccc(CC2CCNCCN2c2nc3c(c(Nc4ccc5[nH]ncc5c4)n2)COC3)cc1 (stereo not drawn) [Example 236, 2-(7-benzyl-1,4-diazepan-1-yl)-N-(1H-indazol-5-yl)-5,7-dihydrofuro[3,4-d]pyrimidin-4-amine]
Second: c1ccc(CC2CN(c3nc4c(c(Nc5ccc6[nH]ncc6c5)n3)COC4)CCCN2)cc1 (stereo not drawn) [Example 2, 2-(3-benzyl-1,4-diazepan-1-yl)-N-(1H-indazol-5-yl)-5,7-dihydrofuro[3,4-d]pyrimidin-4-amine]
The inhibition at 10 µM of the first is higher: 80.8% for the first, 72.4% for the second.

Going from c1cc(Nc2cnc3[nH]ccc3c2)nc(N2CCNCC2)n1 [Example 369, N-(2-(piperazin-1-yl)pyrimidin-4-yl)-1H-pyrrolo[2,3-b]pyridin-5-amine] to c1cc(Nc2ccc(-c3nnn[nH]3)cc2)nc(N2CCNCC2)n1 [Example 42, N-(4-(1H-tetrazol-5-yl)phenyl)-2-(piperazin-1-yl)pyrimidin-4-amine], the inhibition at 10 µM rises from 0.9% to 9.1%.

Compared with Cc1nc(N2CCNC(c3ccccc3)CC2)nc(Nc2ccc3[nH]ncc3c2)c1C (stereo not drawn) [Example 21, N-(5,6-dimethyl-2-(5-phenyl-1,4-diazepan-1-yl)pyrimidin-4-yl)-1H-indazol-5-amine], Cc1cnc(N2CCNC(c3ccccc3)CC2)nc1Nc1ccc2[nH]ncc2c1 (stereo not drawn) [Example 94, N-(5-methyl-2-(5-phenyl-1,4-diazepan-1-yl)pyrimidin-4-yl)-1H-indazol-5-amine] is lower in inhibition at 10 µM: 21.1% for the first, 19.2% for the second.

Compared with Cc1nc(N2CCCNCC2)nc(Nc2ccc(-c3cn[nH]c3)cc2)c1C [Example 266, N-(4-(1H-pyrazol-4-yl)phenyl)-2-(1,4-diazepan-1-yl)-5,6-dimethylpyrimidin-4-amine], c1ccc2c(Nc3ccc(-c4cn[nH]c4)cc3)nc(N3CCCNCC3)nc2c1 [Example 268, N-(4-(1H-pyrazol-4-yl)phenyl)-2-(1,4-diazepan-1-yl)quinazolin-4-amine] is lower in inhibition at 10 µM: 74% for the first, 63.7% for the second.

First: c1cc(Nc2ccc(-c3nnco3)cc2)nc(N2CCNCC2)n1 [Example 367, N-(4-(1,3,4-oxadiazol-2-yl)phenyl)-2-(piperazin-1-yl)pyrimidin-4-amine]
Second: c1cc(Nc2ccnc(N3CCNCC3)n2)cc(-c2ccncc2)c1 [Example 345, 2-(piperazin-1-yl)-N-(3-(pyridin-4-yl)phenyl)pyrimidin-4-amine]
The inhibition at 10 µM of the first is lower: 7.2% for the first, 23.7% for the second.

Compared with CC1CNCCN1c1nccc(Nc2ccc(-c3cn[nH]c3)cc2)n1 (stereo not drawn) [Example 253, N-(4-(1H-pyrazol-4-yl)phenyl)-2-(2-methylpiperazin-1-yl)pyrimidin-4-amine], CCC1CN(c2ncc(C)c(Nc3ccc4[nH]ncc4c3)n2)CCN1 (stereo not drawn) [Example 99, N-(2-(3-ethylpiperazin-1-yl)-5-methylpyrimidin-4-yl)-1H-indazol-5-amine] is lower in inhibition at 10 µM: 41.5% for the first, 29.6% for the second.

Going from Cc1nc(N2CCCNC(C(C)C)C2)nc(Nc2ccc3[nH]ncc3c2)c1C (stereo not drawn) [Example 16, N-(2-(3-isopropyl-1,4-diazepan-1-yl)-5,6-dimethylpyrimidin-4-yl)-1H-indazol-5-amine] to CC(C)C1CCN(c2ncc(F)c(Nc3ccc4[nH]ncc4c3)n2)CCN1 (stereo not drawn) [Example 145, N-(5-fluoro-2-(5-isopropyl-1,4-diazepan-1-yl)pyrimidin-4-yl)-1H-indazol-5-amine], the inhibition at 10 µM rises from 32.1% to 42.4%.

Fc1cnc(N2CCCNC(c3ccccc3)C2)nc1Nc1ccc2[nH]ncc2c1 (stereo not drawn) [Example 141, N-(5-fluoro-2-(3-phenyl-1,4-diazepan-1-yl)pyrimidin-4-yl)-1H-indazol-5-amine] gave an inhibition at 10 µM of 54.9%.

same assay, conditions: Rattus norvegicus, A7R5, A7R5 cells, ppMlc (T18/S19)

Going from c1ccc(CC2CCNCCN2c2nc3c(c(Nc4ccc5[nH]ncc5c4)n2)COC3)cc1 (stereo not drawn) [Example 236, 2-(7-benzyl-1,4-diazepan-1-yl)-N-(1H-indazol-5-yl)-5,7-dihydrofuro[3,4-d]pyrimidin-4-amine] to c1ccc(CC2CN(c3nc4c(c(Nc5ccc6[nH]ncc6c5)n3)COC4)CCCN2)cc1 (stereo not drawn) [Example 2, 2-(3-benzyl-1,4-diazepan-1-yl)-N-(1H-indazol-5-yl)-5,7-dihydrofuro[3,4-d]pyrimidin-4-amine], the IC50 falls from 4690 nM to 2500 nM (1.9-fold). The second is the more potent here.

Cc1nc(N2CCCNCC2)nc(Nc2ccc(-c3cn[nH]c3)cc2)c1C [Example 266, N-(4-(1H-pyrazol-4-yl)phenyl)-2-(1,4-diazepan-1-yl)-5,6-dimethylpyrimidin-4-amine] and c1ccc2c(Nc3ccc(-c4cn[nH]c4)cc3)nc(N3CCCNCC3)nc2c1 [Example 268, N-(4-(1H-pyrazol-4-yl)phenyl)-2-(1,4-diazepan-1-yl)quinazolin-4-amine] are within 1.5-fold of each other in IC50: 3150 nM for the first, 3720 nM for the second.

In the case of Fc1cnc(N2CCCNC(c3ccccc3)C2)nc1Nc1ccc2[nH]ncc2c1 (stereo not drawn) [Example 141, N-(5-fluoro-2-(3-phenyl-1,4-diazepan-1-yl)pyrimidin-4-yl)-1H-indazol-5-amine], the IC50 is reported as 2890 nM.
